Source: patent US12559461B2, “Antibiotic adjuvant compounds” (UNIVERSITY OF NOTRE DAME DU LAC, priority 2020, dated 2026)
Like-named read-outs stand apart in the source and are kept apart here.

Experiments:
[1] = system: AB5075; experiment: Broth microdilution clarithromycin (CLR) potentiation and dose-response of adjuvant; assay type: cell-based, Acinetobacter baumannii; details: for adjuvant activity (CLR potentiation), rank by amide linker position: dosed at 30 μM
Protocol: (§1) Bacterial Strains and Antimicrobial Agents. Acinetobacter baumannii clinical isolate 5075 was obtained from Dr. Colin Manoil at the University of Washington. Colonies were grown on lysogeny broth (LB) agar. Cation-adjusted Mueller-Hinton Broth (CAMHB) (catalog number 212322) were purchased from BD Diagnostics. LB broth was purchased from Fisher Scientific (catalog number BP9722-2). […] Colistin sulfate salt (catalog number C4461) was purchased from Sigma Aldrich. All assays were completed in duplicate and repeated at least two separate times. All compounds were dissolved as their HCl salts in molecular biology grade DMSO as 10 or 100 mM stock solutions and stored at −20° C. Colistin was dissolved in sterile water while clarithromycin was dissolved in molecular biology grade DMSO.
Broth microdilution method for antibiotic potentiation. Day cultures (6 h) of bacteria in CAMHB were subcultured to 5×10^5 CFU/mL in CAMHB. Aliquots (4 mL) were placed in culture tubes and dosed with compound from 10 mM stock samples to give the desired concentration of the compound to be tested against the particular bacterial strain; this insured non-toxic DMSO concentrations ≤0.3% in each well. 1 mL of the resulting solution was placed in a separate culture and dosed with antibiotic at the highest concentration to be tested. Bacteria treated with antibiotic alone served as the control. Row one of a 96-well plate was filled with 200 μL of the antibiotic/2-AI solution, and rows 2-12 were filled with 100 μL each of the remaining 4 mL of bacterial subculture containing adjuvant at the desired concentration, except for the control lane which contained only bacterial subculture. Row one was then mixed five times, and 100 μL was transferred to row two, which was then mixed five times before being transferred to row three. This process was repeated until all rows had been mixed, except for row twelve which would have only 2-AI to serve as a control to monitor potential toxicity. The 96-well plate was then covered in Glad Press n'Seal and incubated under stationary conditions at 37° C. for 16 h. MIC values were determined as the lowest concentration at which no bacterial growth was observed, and fold reductions were determined by comparison to antibiotic control lane.
Dose-response of Adjuvant Assay. The procedure for ‘broth microdilution method for antibiotic potentiation’ was followed using 4 mL aliquots of adjuvant at various concentrations: 0, 5, 7.5, 10, 15, 20, 25, and 30 μM.

[2] = system: AB5075; experiment: Broth microdilution MIC of compound alone (standalone toxicity); assay type: cell-based, Acinetobacter baumannii
Protocol: as §1
Broth microdilution method for MIC determination. Day cultures (6 h) of each bacterial strain in cation adjusted Mueller Hinton II broth (CAMHB, Fisher Scientific U.S.) were subcultured to 5×10^5 CFU/mL in CAMHB. Aliquots (1 mL) were placed in culture tubes and compound was added from 10 mM stock samples in DMSO, such that compound concentration equaled highest concentration tested (200 μM). Samples were then aliquoted (200 μL) into the first wells of a 96-well plate, with all remaining wells being filled with 100 μL of initial bacterial subculture. Row one wells were mixed five times, before 100 μL was transferred to row two. Row two was then mixed five times, and 100 μL was transferred to row three. This process was repeated until the final row had been mixed; this served to serially dilute the compound. Plates were then covered with GLAD Press n'Seal and incubated under stationary conditions at 37° C. for 16 h. MIC values were then recorded as the lowest concentration at which no bacterial growth was observed.

CLR MIC ([1]; compound tested at 10 μM) [µg/mL]	CLR MIC ([1]; compound tested at 30 μM) [µg/mL]	Fold Reduction of CLR MIC ([1]; compound tested at 30 μM)	CLR MIC ([1]; compound tested at 20 μM) [µg/mL]	SMILES	MIC ([2]; Acinetobacter baumannii) [µM]	also measured
1	–	–	–	Cl.Nc1nc(-c2ccc(NC(=O)c3ccc(C(F)(F)F)c(F)c3)cc2)c[nH]1 [Compound 4p, N-(4-(2-amino-1H-imidazol-4-yl)phenyl)-3-fluoro-4-(trifluoromethyl)benzamide hydrochloride]	50	CLR MIC ([1]; compound tested at 5 μM): 16 µg/mL; CLR MIC ([1]; compound tested at 7.5 μM): 4 µg/mL; Fold Reduction of CLR MIC ([1]; compound tested at 10 μM): 32 fold; CLR MIC ([1]; compound tested at 15 μM): 0.5 µg/mL
–	8	four-fold	–	Cl.Nc1nc(-c2ccc(NC(=O)c3cccc(Cl)c3Cl)cc2)c[nH]1 [Compound 4q, N-(4-(2-amino-1H-imidazol-4-yl)phenyl)-2,3-dichlorobenzamide hydrochloride]	> 200	–
–	4	eight-fold	–	Cl.Nc1nc(-c2ccc(NC(=O)c3ccc(Cl)cc3Cl)cc2)c[nH]1 [Compound 4t]	–	MIC [2]: >200 µM
32	2	–	16	Cl.Nc1nc(-c2ccc(NC(=O)c3ccc(Br)cc3F)cc2)c[nH]1 [Compound 4u]	–	MIC [2]: >200 µM
–	32	–	–	Cl.Nc1nc(-c2ccc(NC(=O)c3cc(I)c(I)c(I)c3)cc2)c[nH]1 [Compound 4w]	–	MIC [2]: >200 µM
–	4	–	–	Cl.Nc1nc(-c2ccc(NC(=O)c3c(F)c(F)c(F)c(F)c3F)cc2)c[nH]1 [Compound 4x, N-(4-(2-amino-1H-imidazol-4-yl)phenyl)-2,3,4,5,6-pentafluorobenzamide hydrochloride]	> 200	–
0.25	–	–	0.25	Cl.Nc1nc(-c2ccc(NC(=O)c3cc(Cl)c(Br)c(Cl)c3)cc2)c[nH]1 [Compound 4y, N-(4-(2-amino-1H-imidazol-4-yl)phenyl)-4-bromo-3,5-dichlorobenzamide hydrochloride]	200	CLR MIC ([1]; compound tested at 7.5 μM): 8 µg/mL; Fold Reduction of CLR MIC ([1]; compound tested at 10 μM): 128 fold
–	8	–	–	Cl.Nc1nc(-c2ccc(NC(=O)c3cc(Cl)cc(Cl)c3)c(F)c2)c[nH]1 [Compound 10c, N-(4-(2-amino-1H-imidazol-4-yl)-2-fluorophenyl)-3,5-dichlorobenzamide hydrochloride]	> 200	–

Continued, compound first:

SMILES	CLR MIC ([1]; compound tested at 10 μM) [µg/mL]	CLR MIC ([1]; compound tested at 30 μM) [µg/mL]	Fold Reduction of CLR MIC ([1]; compound tested at 30 μM)	CLR MIC ([1]; compound tested at 20 μM) [µg/mL]	MIC ([2]; Acinetobacter baumannii) [µM]	also measured
COc1cc(-c2c[nH]c(N)n2)ccc1NC(=O)c1cc(Cl)cc(Cl)c1.Cl [Compound 6a, N-(4-(2-amino-1H-imidazol-4-yl)-2-methoxyphenyl)-3,5-dichlorobenzamide hydrochloride]	16	0.5	64 fold	4	100	Fold Reduction of CLR MIC ([1]; compound tested at 20 μM): 8 fold
Cc1cc(NC(=O)c2cc(Cl)cc(Cl)c2)ccc1-c1c[nH]c(N)n1.Cl [Compound 6b, N-(4-(2-amino-1H-imidazol-4-yl)-3-methylphenyl)-3,5-dichlorobenzamide hydrochloride]	8	0.5	64 fold	0.5	> 200	Fold Reduction of CLR MIC ([1]; compound tested at 20 μM): 64 fold
Cc1cc(-c2c[nH]c(N)n2)ccc1NC(=O)c1cc(Cl)cc(Cl)c1.Cl [Compound 10a, N-(4-(2-amino-1H-imidazol-4-yl)-2-methylphenyl)-3,5-dichlorobenzamide hydrochloride]	16	0.5	64 fold	1	> 200	Fold Reduction of CLR MIC ([1]; compound tested at 20 μM): 32 fold
Cl.Nc1nc(-c2ccc(NC(=O)c3cc(Cl)cc(Cl)c3)c(Cl)c2)c[nH]1 [Compound 10b, N-(4-(2-amino-1H-imidazol-4-yl)-2-chlorophenyl)-3,5-dichlorobenzamide hydrochloride]	–	16	–	–	> 200	–
Cl.Nc1nc(-c2ccc(NC(=O)c3cc(Cl)cc(Cl)c3)cc2F)c[nH]1 [Compound 10d, N-(4-(2-amino-1H-imidazol-4-yl)-3-fluorophenyl)-3,5-dichlorobenzamide hydrochloride]	0.5	–	–	0.25	> 200	CLR MIC ([1]; compound tested at 5 μM): 8 µg/mL; Fold Reduction of CLR MIC ([1]; compound tested at 5 μM): 4 fold; CLR MIC ([1]; compound tested at 7.5 μM): 4 µg/mL; Fold Reduction of CLR MIC ([1]; compound tested at 10 μM): 64 fold; Fold Reduction of CLR MIC ([1]; compound tested at 20 μM): 128 fold; CLR MIC ([1]; compound tested at 30 μM, hydrochloride): 0.25 µg/mL
Cl.Nc1nc(-c2c(F)cc(NC(=O)c3cc(Cl)cc(Cl)c3)cc2F)c[nH]1 [Compound 13, N-(4-(2-amino-1H-imidazol-4-yl)-3,5-difluorophenyl)-3,5-dichlorobenzamide hydrochloride]	–	4	–	8	–	Fold Reduction of CLR MIC ([1]; compound tested at 10 μM): two-fold
Nc1nc(-c2cccc(NC(=O)c3cc(F)cc(F)c3)c2)c[nH]1 [Compound 18]	–	–	–	–	–	adjuvant activity (CLR potentiation), rank by amide linker position [1]: 4k (highest adjuvant activity) >meta amide linker 18>ortho amide linker 19
Nc1nc(-c2ccccc2NC(=O)c2cc(F)cc(F)c2)c[nH]1 [Compound 19]	–	–	–	–	–	adjuvant activity (CLR potentiation), rank by amide linker position [1]: lowest adjuvant activity
